Results as given in patent US20220259249A1, “INHIBITORS OF ANTIBIOTIC RESISTANCE MEDIATED BY ARNT” (priority 2019, published 2022).
Read-outs that look alike come from different tables or passages of the source.

Assays:
[1] = test system: P. aeruginosa PA14 col^R 5 (colistin-resistant strain); experiment: microbe, parasite or virus in culture; type: cell-based; conditions: for IC90: read-out: IC90, synergy with colistin (8 μg/ml), minimum concentration causing at least 90% growth inhibition; for antibacterial activity per se: in the absence of colistin
Experimental: The compounds identified by in silico screening were tested for their antibacterial activity (in the absence of colistin) and for their synergistic or adjuvant activity with colistin against a colistin-resistant strain of P. aeruginosa grown in the absence or presence of a sub-inhibitory concentration of colistin (8 μg/ml).
This strain over-expresses the am genes responsible for the modification of lipopolysaccharide by the addition of L-amino-arabinose.
The strain was grown in Mueller-Hinton (MH) medium for 8 hours, and inoculated at a cell density of ˜10^6/ml in MH medium supplemented or not with colistin at a concentration of 16 μg/ml. […] The microtitration plates were incubated at 37° C. without stirring for 24 hours. Bacterial growth was assessed by measuring absorbance at 600 nm (A600) in a microplate reader (Victor 2^V, Perkin-Elmer). […] For each compound three independent experiments were conducted, and the averages of the values obtained in the three experiments are considered to determine the values of IC50 e IC90.

[2] = test system: 16HBE cells (human epithelial cells of bronchial origin); experiment: Cell viability test (MTT reduction);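 note: formazan absorbance at 570 nm after MTT reduction, corrected for cell-free blank wells, reported relative to untreated cells, from duplicate wells over three independent repeats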
Experimental: The cytotoxic potential of the compounds was evaluated on cell cultures in vitro. […] The results are reported in the table as viability (%) compared to untreated cells (Table 4).
To evaluate the cytotoxic potential of the compounds under examination, the MTT (3-(4,5-dimethylthiazol-2-yl)-2,5-diphenyltetrazolium) reduction test, commonly used to monitor cell viability was used following the exposure to potentially cytotoxic agents. The essay is based on the reduction of MTT to formazan, a compound that assumes a blue colour which can be evaluated by spectrophotometric reading at a wavelength of 570 nm. For the essay we used the 16HBE cell line. […] Each test was performed in duplicate and three independent replicas were made.
Cell viability was calculated as follows:
COD570=OD570 of sample−OD570 of wells without cells (white)
Viability=100−reduction (%)
where: NT indicates the samples of cells non-threated with the compounds; T the samples of cells treated with the compounds at the different concentrations.
The mean cell viability values were calculated using the Excel mean and standard deviation functions.

[3] = Pseudomonas aeruginosa, PA14, 24 h, read-out: IC50 without colistin
[4] = PA14 ColR5, colistin 8 μg/ml (sub-inhibitory), 24 h
[5] = 16HBE, 1.95 μM, 18 hours, MTT, vs untreated cells
[6] = 16HBE, 3.91 μM, 18 hours, MTT, vs untreated cells
[7] = 16HBE, 7.81 μM, 18 hours, MTT, vs untreated cells
[8] = 16HBE, 15.63 μM, 18 hours, MTT, vs untreated cells
[9] = 16HBE, 62.5 μM, 18 hours, MTT, vs untreated cells
[10] = 16HBE, 125 μM, 18 hours, MTT, vs untreated cells
[11] = 16HBE, 250 μM, 18 hours, MTT, vs untreated cells
[12] = read-out: IC50, synergy with colistin (8 μg/ml), PA14 ColR5, colistin 8 μg/ml (sub-inhibitory), minimum concentration causing at least 50% growth inhibition, 24 h

Structure (SMILES) | IC50 [1, 3] | IC90 [1, 4] | IC50 [1, 12] | other results
C=CC(C)(C)c1c2c(c3oc4c(O)c(O)ccc4c(=O)c3c1O)C(C)(C)C(C)O2 (centres unmarked) [BBN120, rheediaxanthone B] | > 250 µM | > 250 µM | – | –
C[C@@]12CCC3[C@@](CCC4[C@](C)(COC(=O)C(=O)O)CCC[C@]43C)(CC1)C2 (stereo partly drawn) [SR8, ent-beyeran-19-O-oxalic acid] | > 250 µM | > 250 µM | – | Average percentage of cell viability (±standard deviation) [2]: 90.55 ± 4.17%; Average percentage of cell viability (±standard deviation) [2, 5]: 100.17 ± 14.21%; Average percentage of cell viability (±standard deviation) [2, 6]: 97.84 ± 10.19%; Average percentage of cell viability (±standard deviation) [2, 7]: 90.33 ± 4.26%; Average percentage of cell viability (±standard deviation) [2, 8]: 92.64 ± 6.57%; Average percentage of cell viability (±standard deviation) [2, 9]: 85.68 ± 6.99%; Average percentage of cell viability (±standard deviation) [2, 10]: 78.02 ± 7.46%; Average percentage of cell viability (±standard deviation) [2, 11]: 80.16 ± 2.01%
C[C@]12C=C[C@@]3(CCC4[C@@](C)(CO)CCC[C@@]4(C)C3CC1)C2 (stereo partly drawn) [FDA, ent-beyer-15-en-18-ol] | > 250 µM | > 250 µM | > 250 µM | antibacterial activity per se [1]: none of the compounds showed antibacterial activity per se
CC(C)=CCc1c(O)cc2c(c1O)C(=O)[C@H](O)[C@@H](c1ccc(O)cc1)O2 [BBN147, 6-prenyl-aromadendrine] | > 250 µM | > 250 µM | – | –
O=C(O)c1cc(O)c2c(c1)C(=O)c1cccc(O)c1C2=O [BBN152, 4,5-dihydroxy-9,10-dioxoanthracene-2-carboxylic acid] | > 250 µM | > 250 µM | > 250 µM | –
C[C@@]12CCC3[C@@](CCC4[C@@]3(C)CCC[C@@]4(C)C(=O)O)(CC1)C2 (stereo partly drawn) [SR10, ent-beyeran-19-oic acid] | > 250 µM | > 250 µM | – | Average percentage of cell viability (±standard deviation) [2]: 99.52 ± 9.52%; Average percentage of cell viability (±standard deviation) [2, 5]: 105.21 ± 6.73%; Average percentage of cell viability (±standard deviation) [2, 6]: 104.95 ± 6.36%; Average percentage of cell viability (±standard deviation) [2, 7]: 101.00 ± 7.12%; Average percentage of cell viability (±standard deviation) [2, 8]: 97.98 ± 1.66%; Average percentage of cell viability (±standard deviation) [2, 9]: 99.80 ± 4.30%; Average percentage of cell viability (±standard deviation) [2, 10]: 92.07 ± 5.47%; Average percentage of cell viability (±standard deviation) [2, 11]: 1.47 ± 2.29%; reduction in cell viability ([2]; 16HBE, highest concentration (250 μM), 18 hours): total reduction of cell viability
C=C1C[C@@]23CCC4[C@@](C)(CCC[C@@]4(C)C(=O)O)C2CC[C@]1(O)C3 (some centres unmarked) [SR5, 13-hydroxy-kaur-16-en-19-oic acid] | > 250 µM | > 250 µM | > 250 µM | –
COC(=O)C1=CO[C@@H](O[C@@H]2O[C@H](CO)[C@@H](O)[C@H](O)[C@H]2O)[C@@H]2[C@@H](C)[C@@H](O)C[C@H]12 [BBN139, methyl (1S, 4aS, 6S, 7R, 7aS)-6-hydroxy-7-methyl-1-[(2 S, 3 R, 4 S, 5S, 6R)-3,4,5-trihydroxy-6-(hydroxymethyl)oxan-2-yl]oxy-1,4a, 5,6,7,7a-haxidrocrociclopenta [c] piran-4-carboxylate] | > 250 µM | > 250 µM | > 250 µM | –
COc1cc2ccc(=O)oc2cc1OC/C=C(\C)CCC=C(C)C [BBN146, 6-methoxy-7-O-geranyl-coumarin] | > 250 µM | > 250 µM | > 250 µM | –
COc1cc(O)c(O)c(CC=C(C)C)c1-c1coc2cc(O)cc(O)c2c1=O [BBN118, 3-[3,4-dihydroxy-6-methoxy-2-(3-methylbut-2-enyl)phenyl]-5,7-dihydroxycromen-4-one] | > 250 µM | > 250 µM | – | –
O=C(/C=C/c1ccc(O)c(O)c1)O[C@@H]1C[C@](O)(C(=O)O)C[C@@H](O)[C@H]1O [BBN53, (1S, 3R, 4R, 5R)-3-[(E)-3-(3,4-dihydroxyphenyl)prop-2-enoyl]oxy-1,4,5-trihydroxycyclohexane-1-carboxylic acid] | > 250 µM | > 250 µM | > 250 µM | –
C[C@@]12CCC3[C@@](CCC4[C@](C)(CO)CCC[C@]43C)(CC1)C2 (stereo partly drawn) [SR9, ent-beyeran-19-ol] | > 250 µM | > 250 µM | > 250 µM | –
Cc1nccc2c1[nH]c1ccccc12 [BBN135, 1-methyl-9H-pyrido[3,4-b]indole] | > 250 µM | > 250 µM | > 250 µM | –
CC(C)=CCc1c(O)c(C(=O)c2ccccc2)c(O)c2c1OC(C)(C)C=C2 [BBN148, [5,7-dihydroxy-2,2-dimethyl-8-(3-methylbut-2-enyl)cromen-6-yl]-phenylmethanone] | > 250 µM | > 250 µM | > 250 µM | –
O=C(CCc1ccc(O)cc1)c1c(O)cc(O)cc1O [BBN101, 3-(4-hydroxyphenyl)-1-(2,4,6-trihydroxyphenyl)propan-1-one] | > 250 µM | > 250 µM | > 250 µM | –
C[C@]12C=C[C@@]3(CCC4[C@@](C)(COC(=O)CC(=O)O)CCC[C@@]4(C)C3CC1)C2 (stereo partly drawn) [FDM, ent-beyer-15-en-18-O-malonic acid] | > 250 µM | > 250 µM | 62.5 µM | inhibition of bacterial growth in the presence of colistin ([1]; colistin 8 μg/ml): able to inhibit bacterial growth in the presence of colistin; antibacterial activity per se [1]: none of the compounds showed antibacterial activity per se; Average percentage of cell viability (±standard deviation) [2]: 106.63 ± 2.87%; Average percentage of cell viability (±standard deviation) [2, 5]: 102.92 ± 7.31%; Average percentage of cell viability (±standard deviation) [2, 6]: 96.70 ± 1.60%; Average percentage of cell viability (±standard deviation) [2, 7]: 97.93 ± 2.17%; Average percentage of cell viability (±standard deviation) [2, 8]: 107.42 ± 0.01%; Average percentage of cell viability (±standard deviation) ([2]; 16HBE, 31.25 μM, 18 hours, MTT, vs untreated cells): 113.17 ± 8.95%; Average percentage of cell viability (±standard deviation) [2, 10]: 100.48 ± 12.78%; Average percentage of cell viability (±standard deviation) [2, 11]: 85.01 ± 2.40%
CC(C)=CCC/C(C)=C/COc1ccc(C(=O)/C=C/c2ccccc2)cc1 [BBN154, 4′-O-geranil-calcone] | > 250 µM | > 250 µM | > 250 µM | –
O=C1c2c(O)cccc2[C@H]([C@@H]2O[C@H](CO)[C@@H](O)[C@H](O)[C@H]2O)c2cc(CO)cc(O)c21 [BBN36, (10S)-1,8-dihydroxy-3-(hydroxymethyl)-10-[(2S, 3R, 4R, 5S, 6R)-3,4,5-trihydroxy-6-(hydroxymethyl)oxan-2-yl]-10 H-anthracen-9-one] | > 250 µM | > 250 µM | > 250 µM | –
CC1(C)C=Cc2c(cc(O)c3c(=O)c4cc5c(c(O)c4oc23)OC(C)(C)C=C5)O1 [BBN119, 11,22-dihydroxy-7,7,19,19-tetramethyl-2,8,20-trioxapentacyclo [12.8.0.03,120,04,90,016,21]docosa-1(14), 3(12), 4(9), 5, 10, 15, 17, 21-octaen-13-one] | > 250 µM | > 250 µM | > 250 µM | –
COC(=O)[C@]1(C)CCC[C@@]2(C)C3CC[C@@]4(C)C[C@]3(CCC21)CC4=O (single isomer, unassigned; ent-16) [SR7, methyl ester of ent-16-oxo-beyeran-19-oic acid] | > 250 µM | > 250 µM | > 250 µM | –
